Test results taken from PubChem BioAssay (NCI).
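Dose response: 5 concentrations. Exposure: 48 h. Format: 96-well plates. Endpoint: linear interpolation; highest concentration if not reached. GI50 marks 50% less growth. TGI marks complete inhibition of growth.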

Experiments:
Assay in all cases: inhibition of tumour cell growth, NCI panel, 48 h
ACHN renal = system: ACHN renal
A549 NSCLC = system: A549 NSCLC
SN12C renal = system: SN12C renal
UACC-62 melanoma = system: UACC-62 melanoma
HCT-116 colon = system: HCT-116 colon
SF-539 CNS = system: SF-539 CNS
HOP-62 NSCLC = system: HOP-62 NSCLC
OVCAR-4 ovarian = system: OVCAR-4 ovarian
786-0 renal = system: 786-0 renal
T-47D breast = system: T-47D breast
MDA-MB-435 = system: MDA-MB-435
KM12 colon = system: KM12 colon
RXF 393 renal = system: RXF 393 renal
NCI/ADR-RES ovarian = system: NCI/ADR-RES ovarian
EKVX NSCLC = system: EKVX NSCLC
MCF7 breast = system: MCF7 breast
MALME-3M melanoma = system: MALME-3M melanoma
NCI-H226 lung = system: NCI-H226 lung
LOX IMVI melanoma = system: LOX IMVI melanoma
PC-3 prostate = system: PC-3 prostate
K-562 leukemia = system: K-562 leukemia
MDA-MB-468 breast = system: MDA-MB-468 breast
TK-10 renal = system: TK-10 renal
HL-60(TB) leukemia = system: HL-60(TB) leukemia
SK-MEL-2 melanoma = system: SK-MEL-2 melanoma
NCI-H460 lung = system: NCI-H460 lung
BT-549 breast = system: BT-549 breast
CCRF-CEM leukemia = system: CCRF-CEM leukemia
SNB-19 CNS = system: SNB-19 CNS
MOLT-4 leukemia = system: MOLT-4 leukemia

## Cn1cc(-c2cc(N)n3nc(-c4c[nH]c5ccccc45)cc3n2)c2ccccc21
ACHN renal
  GI50: 2.22 µM
  TGI: 4.85 µM
A549 NSCLC
  GI50: 3.01 µM
  TGI: 12 µM
SN12C renal
  GI50: 3.47 µM
  TGI: 12.4 µM
UACC-62 melanoma
  GI50: 1.74 µM
  TGI: 3.17 µM
HCT-116 colon
  GI50: 1.9 µM
  TGI: 3.54 µM
SF-539 CNS
  GI50: 1.81 µM
  TGI: 3.21 µM
HOP-62 NSCLC
  GI50: 3.09 µM
  TGI: 10.5 µM
OVCAR-4 ovarian
  GI50: 3.26 µM
  TGI: 14.7 µM
786-0 renal
  GI50: 1.68 µM
  TGI: 3.26 µM
T-47D breast
  GI50: 2.02 µM
  TGI: 4.58 µM
MDA-MB-435
  GI50: 1.92 µM
  TGI: 3.92 µM
KM12 colon
  GI50: 1.94 µM
  TGI: 3.99 µM
RXF 393 renal
  GI50: 1.69 µM
  TGI: 3.96 µM
NCI/ADR-RES ovarian
  GI50: 2.65 µM
  TGI: 7.75 µM
EKVX NSCLC
  GI50: 2.48 µM
  TGI: 7.15 µM
MCF7 breast
  GI50: 1.81 µM
  TGI: 3.78 µM
MALME-3M melanoma
  GI50: 1.56 µM
  TGI: 2.9 µM
NCI-H226 lung
  GI50: 11.4 µM
  TGI: 37.2 µM
LOX IMVI melanoma
  GI50: 1.81 µM
  TGI: 3.25 µM
PC-3 prostate
  GI50: 3.38 µM
  TGI: 14.4 µM
K-562 leukemia
  GI50: 2.34 µM
  TGI: 6.81 µM
MDA-MB-468 breast
  GI50: 1.63 µM
  TGI: 3.11 µM
TK-10 renal
  GI50: 2.15 µM
  TGI: 7.17 µM
HL-60(TB) leukemia
  GI50: 1.99 µM
  TGI: 5.08 µM
SK-MEL-2 melanoma
  GI50: 4.72 µM
  TGI: 17.2 µM
NCI-H460 lung
  GI50: 1.95 µM
  TGI: 3.83 µM
BT-549 breast
  GI50: 14.8 µM
  TGI: 29.8 µM
CCRF-CEM leukemia
  GI50: 2.77 µM
  TGI: 24 µM
SNB-19 CNS
  GI50: 3.14 µM
  TGI: 11.4 µM
MOLT-4 leukemia
  GI50: 2.5 µM
